Results as given in paper PMC2063630 (The Journal of Cell Biology, 2007).
Read-outs that look alike come from different tables or passages of the source. Blank lines part the entries; values can stand above or below the molecule they belong to. Square brackets hold non-standard residues; d marks the D form. Ends that are not written are not given here. * marks the point of attachment. Biotin = O=C1N[C@H]2[C@H](CS[C@H]2CCCCC(=O)*)N1; pS = N[C@@H](COP(=O)(O)O)C(=O)O

Columns and labels:
[1] = tested on: p38 and JNK isoforms; conditions: high concentrations; ref Kuma et al., 2005; cited from earlier work
[2] = tested on: endogenous WNK1 in 293 cells; type: cell-based; conditions: for activation of WNK1 by other stimuli, in words: serum-deprived 16 h, stimulus 30 min
[3] = tested on: WNK1 localization in 293 cells; test: WNK1 localization in 293 cells by confocal and live-cell imaging, FRAP; type: cell-based; conditions: for time to redistribution of GFP-WNK1 to intracellular vesicles / time to reversal after removal (WNK1 diffuse in cytosol): live 293 cells; for time to redistribution of GFP-WNK1 to intracellular vesicles: 0.2 M sorbitol or 0.2 M NaCl; for time to reversal after removal (WNK1 diffuse in cytosol): removal of sorbitol or NaCl; for FRAP: time to redistribution to photobleached area: sorbitol- or NaCl-treated 293 cells
[4] = tested on: ERK1/2; test: ERK activation in 293 cells; type: cell-based
[5] = tested on: p38 and JNK; test: p38 / JNK activation in 293 cells; type: cell-based; conditions: 30 min
[6] = tested on: endogenous WNK1 in 293 cells; type: cell-based, human; conditions: 0.5 M sorbitol
[7] = tested on: SPAK and OSR1 T-loop and S-motif; test: SPAK/OSR1 T-loop and S-motif phosphorylation; type: cell-based; conditions: sorbitol, HeLa and 293 cells
[8] = tested on: endogenous SPAK and OSR1 in 293 cells; test: SPAK/OSR1 activity in 293 cells; type: cell-based; conditions: sorbitol, CATCHtide (Fig. S1)
[9] = tested on: endogenous SPAK and OSR1 in HeLa cells; test: SPAK/OSR1 activity in HeLa cells; type: cell-based; conditions: 0.5 M sorbitol, 30 min, CATCHtide
[10] = biological target: OSR1 CCT domain (residues 429–527) (Homo sapiens, UniProt O95747); test: Surface plasmon resonance; type: binding; conditions: BiaCore, OSR1 CCT domain 6.8–340 nM; vs nonphosphorylated peptide
[11] = tested on: WNK1 Ser382; test: WNK1 Ser382 phosphorylation, forms expressed in E. coli; type: biochemical
[12] = tested on: OSR1[D164A] phosphorylation by WNK1[1–661]; test: Activity of WNK1[1–661] forms expressed in E. coli; type: biochemical; conditions: mean of duplicate samples
[13] = tested on: OSR1[D164A] phosphorylation by WNK1[1–667]; test: Activity of GST-WNK1[1–667] forms expressed in 293 cells; type: cell-based
[14] = tested on: WNK1 Ser382; test: WNK1 Ser382 phosphorylation, forms expressed in 293 cells; type: cell-based; conditions: 0.5 M sorbitol, 30 min, phospho-Ser382 antibody
[15] = biological target: OSR1 CCT domain (residues 429-527) (human, UniProt O95747 429-527); test: SPR
[16] = PD184352 2 μM 30 min preincubation, 0.5 M sorbitol 30 min
[17] = U0126, 0.5 M sorbitol, not depicted

OSR1 CCT domain (residues 429–527), sequence (O95747 429-527): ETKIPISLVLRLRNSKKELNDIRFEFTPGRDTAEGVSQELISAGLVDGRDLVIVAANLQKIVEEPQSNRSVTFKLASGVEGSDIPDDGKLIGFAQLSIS
OSR1 CCT domain (residues 429-527), sequence (O95747 429-527): as above

Molecule: Cc1ccc(-n2nc(C(C)(C)C)cc2NC(=O)Nc2ccc(OCCN3CCOCC3)c3ccccc23)cc1 [BIRB0796]
inhibition of p38 and JNK isoforms, in words [1]: inhibit all p38 and JNK isoforms

Molecule: OO [H2O2]
activation of WNK1 by other stimuli, in words [2]: failed to induce activation of WNK1

Molecule: [Cl-].[K+] [KCl]
fold increase of WNK1 activity ([2]; 0.5 M KCl, 30 min): threefold

Molecule: [Cl-].[Na+] [NaCl]
time to redistribution of GFP-WNK1 to intracellular vesicles [3]: ≤ 0.5 min
time to reversal after removal (WNK1 diffuse in cytosol) [3]: ≤ 2 min
FRAP: time to redistribution to photobleached area [3]: ≤ 2 min
concentration at which WNK1 activation was detectable ([2]; NaCl, 30 min): 50 mM
concentration for maximal WNK1 activation ([2]; NaCl, 30 min): 0.15 M

Molecule: O=C(NOCC1CC1)c1ccc(F)c(F)c1Nc1ccc(I)cc1Cl [PD184352]
effect on WNK1 activation by sorbitol [2, 16]: without affecting WNK1 activation
effect on ERK activation by sorbitol [4, 16]: abolished ERK activation by sorbitol

Molecule: C[S+]([O-])c1ccc(-c2nc(-c3ccncc3)c(-c3ccc(F)cc3)[nH]2)cc1 (centres unmarked) [SB203580]
effect on WNK1 activation by sorbitol [2]: failed to prevent activation of WNK1 by sorbitol

Molecule: CCCCCCCCCCCCCC(=O)O[C@@H]1[C@@H](C)[C@@]2(O)[C@@H](C=C(CO)C[C@]3(O)C(=O)C(C)=C[C@@H]23)[C@@H]2C(C)(C)[C@]12OC(C)=O [TPA]
activation of WNK1 by other stimuli, in words [2]: failed to induce activation of WNK1

Molecule: N#CC(=C(/N)Sc1ccccc1N)/C(C#N)=C(/N)Sc1ccccc1N [U0126]
effect on WNK1 activation by sorbitol [2, 17]: without affecting WNK1 activation
effect on ERK activation by sorbitol [4, 17]: abolished ERK activation by sorbitol

Molecule: COc1ccc(C[C@H]2NC[C@H](O)[C@H]2OC(C)=O)cc1 [anisomycin]
activation of WNK1 by anisomycin, in words ([2]; anisomycin 10 μg/ml, 30 min): failed to activate WNK1
p38 and JNK stimulation, in words ([5]; anisomycin 10 μg/ml): potently stimulates p38 and JNK

Molecule: CCCCNc1cc(C(=O)O)cc(S(N)(=O)=O)c1Oc1ccccc1 [bumetanide]
activation of WNK1 by other stimuli, in words [2]: failed to induce activation of WNK1

Molecule: COC[C@@H]([C@H](O)[C@H](O)C(=O)NCC[C@H](C)c1nc(/C=C/C[C@@H]2O[C@]3(C[C@@H](O)[C@@H]2C)O[C@H]([C@H](C[C@H](O)[C@H](C)[C@H](O)[C@H](C)/C=C(C)/C(C)=C/C=C/C(C)=C\C#N)OC)[C@H](OP(=O)(O)O)C3(C)C)co1)N(C)C [calyculin A]
activation of WNK1 by other stimuli, in words [2]: failed to induce activation of WNK1

Molecule: OC[C@@H](O)[C@@H](O)[C@H](O)[C@@H](O)CO [sorbitol]
WNK1 phosphorylation sites stimulated, in words ([6]; 32P-labelled 293 cells, 20 min): Phosphorylation of two sites, Ser1261 and Ser 2372, was stimulated
WNK1 phosphorylation sites enhanced, in words ([6]; unlabeled 293 cells, LC-MS, 30 min): five residues (Ser15, Ser167, Ser382, Ser1261, and Thr1848) whose phosphorylation was markedly enhanced
WNK1 localization, in words ([3]; 0.2 M sorbitol, 1 min): WNK1 was strikingly observed on discrete intracellular structures
time to redistribution of GFP-WNK1 to intracellular vesicles [3]: ≤ 0.5 min
time to reversal after removal (WNK1 diffuse in cytosol) [3]: ≤ 2 min
FRAP: time to redistribution to photobleached area [3]: ≤ 2 min
fold increase of WNK1 activity ([2]; 0.1–1.0 M sorbitol, 30 min, dose-dependent): fivefold
duration of sustained WNK1 activation ([2]; 0.5 M sorbitol): 80 min
time at which WNK1 activation was detected ([2]; 0.5 M sorbitol): ≤ 0.5 min
time to maximal WNK1 activation ([2]; 0.5 M sorbitol): 1 to 2 min
fold increase of WNK1 activity (OSR1 phosphorylation rate) ([2]; 0.5 M sorbitol, 30 min, vs nontreated cells, duplicate samples): approximately threefold
p38 and JNK stimulation, in words ([5]; 0.5 M sorbitol): stimulated the extracellular signal–regulated kinase (ERK) 1/2, p38, and JNK protein kinases
SPAK/OSR1 T-loop and S-motif phosphorylation, in words [7]: markedly stimulated the phosphorylation of endogenously expressed SPAK and OSR1 at both the T-loop and S-motif
fold increase of SPAK/OSR1 activity [8]: approximately fourfold
ERK1/2 stimulation, in words ([4]; 0.5 M sorbitol, 30 min): stimulated the extracellular signal–regulated kinase (ERK) 1/2
fold increase of SPAK/OSR1 activity [9]: approximately fivefold

Molecule: AGRRFIVpSPVPESRL (AGRRFIV[pS]PVPESRL; also: biotin label, attachment end not given here) [phosphorylated Ser1261 peptide]
binding to OSR1 CCT domain, in words [10]: bound to OSR1 with a markedly lower affinity

Molecule: IGF-1: IGF-1
activation of WNK1 by other stimuli, in words [2]: failed to induce activation of WNK1

Molecule: TNFα
activation of WNK1 by other stimuli, in words [2]: failed to induce activation of WNK1

Molecule: WNK1[1–661]: wild-type WNK1 fragment expressed in E. coli
Ser382 phosphorylation after MgATP, in words ([11]; 0.1 mM ATP, 10 mM Mg, 1 h): did not further increase phosphorylation of Ser382
Ser382 phosphorylation, in words ([11]; expressed in E. coli): heavily phosphorylated at Ser382
specific activity [12]: 5.2 U/mg

Molecule: WNK1[1–667]: N-terminal fragment of WNK1, GST fusion, expressed in 293 cells
specific activity ([13]; isolated from sorbitol-stimulated 293 cells): ~0.13 U/mg
specific activity ([13]; wild-type, isolated from untreated 293 cells): 0.13 U/mg
Ser382 phosphorylation induced by sorbitol, in words [14]: Sorbitol markedly increased recognition of WNK1[1–667] by a phospho-Ser382 antibody

Molecule: WNK1[S382A, 1–661]: mutant expressed in E. coli
specific activity [12]: 0.15 U/mg

Molecule: WNK1[S382D, 1–661]: mutant expressed in E. coli
specific activity [12]: 0.26 U/mg

Molecule: WNK1[S382E, 1–661]: mutant expressed in E. coli
specific activity [12]: 0.66 U/mg

Molecule: WNK1[S382E, 1–667]: Ser382 to Glu mutant of GST-WNK1[1–667]
effect of sorbitol on activity of mutant, in words ([13]; 0.5 M sorbitol, 30 min): not enhanced by sorbitol stimulation
basal activity, fold over wild-type WNK1[1–667] from untreated cells ([13]; untreated 293 cells): over eightfold

Molecule: pervanadate
activation of WNK1 by other stimuli, in words [2]: failed to induce activation of WNK1

Kd [15]: ~40 nM
Molecule: Biotin-AGRRFIVSPVPESRL [biotinylated peptide encompassing Ser1261 of WNK1 (biotin-AGRRFIVSPVPESRL)]
